The target in assay [1] is Signal transducer and activator of transcription 3 (Homo sapiens, UniProt P40763). The assay can be described thus: Inhibition of IFNgamma-induced STAT3 activation in human HeLa cells expressing p4xM67-tk-Luc treated 30 mins before […] challenge measured after 6 hrs. The format is cell-based.
Assay [2] can be described thus: Inhibition of TNFalpha-induced NF-kappaB activation in human HIV-1-LTR-luc 5.1 cells treated 30 mins before TNFalpha challenge measured after 6 hrs.

pIC50: −log10 of the molar value.

This passage reports IC50 results from ChEMBL document CHEMBL2021891, “STAT-3 inhibitory bisabolanes from Carthamus glaucus” (J Nat Prod, 2012).

One may read the pIC50 as −log10 of the IC50, conventionally taken in molar units.

Signal transducer and activator of transcription 3, sequence (P40763 whole entry): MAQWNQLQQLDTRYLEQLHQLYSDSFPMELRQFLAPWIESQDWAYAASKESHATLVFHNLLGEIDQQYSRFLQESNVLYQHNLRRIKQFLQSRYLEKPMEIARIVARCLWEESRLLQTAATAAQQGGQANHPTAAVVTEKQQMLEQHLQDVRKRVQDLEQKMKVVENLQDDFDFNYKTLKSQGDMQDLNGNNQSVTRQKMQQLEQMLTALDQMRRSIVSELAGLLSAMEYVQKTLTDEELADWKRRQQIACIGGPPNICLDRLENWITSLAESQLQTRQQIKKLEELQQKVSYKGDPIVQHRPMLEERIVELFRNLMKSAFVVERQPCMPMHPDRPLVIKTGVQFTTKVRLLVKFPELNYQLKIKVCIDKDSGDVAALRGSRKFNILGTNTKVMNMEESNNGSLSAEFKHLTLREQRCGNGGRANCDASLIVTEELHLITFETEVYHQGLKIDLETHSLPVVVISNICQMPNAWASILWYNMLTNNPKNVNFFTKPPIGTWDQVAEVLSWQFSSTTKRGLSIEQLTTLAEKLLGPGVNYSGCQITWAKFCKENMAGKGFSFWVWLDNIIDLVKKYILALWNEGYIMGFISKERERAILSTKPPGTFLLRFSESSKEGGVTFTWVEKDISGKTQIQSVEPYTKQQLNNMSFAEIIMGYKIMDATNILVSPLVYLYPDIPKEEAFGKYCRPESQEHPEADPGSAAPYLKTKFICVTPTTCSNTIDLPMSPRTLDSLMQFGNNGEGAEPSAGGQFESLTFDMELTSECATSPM

Consider `CC(C)=CCC[C@](C)(O[C@@H]1O[C@H](C)[C@H](O)[C@H](O)[C@H]1O)[C@@H]1CC=C(C)CC1` (relative stereo), for which the values for the negative logarithm of the IC50 (pIC50) in assay [1] and in assay [2] were 5.20 and 3.96, respectively.
For `CC(C)=CCC[C@](C)(O[C@@H]1O[C@H](C)[C@H](O)[C@H](OC(=O)C=C(C)C)[C@H]1O)[C@@H]1CC=C(C)CC1` (relative stereo), in that order: 3.96 and 4.22.
Taken in the same sequence, the figures for `CC(C)=CCC[C@](C)(O)[C@@H]1CC=C(C)CC1` (relative stereo) [LEVOMENOL] were 4.14 and below 3.66.
